Source: patent publication US12252524B2, “GIP/GLP1 co-agonist compounds” (Eli Lilly and Company, priority 2018, dated 2025)
Numbered stars: 1 amine (or outer) side, 2 acyl side, 3 side chain; on linkers, the order of the positions; unused ones are H or OH. Square brackets hold non-standard residues; d marks the D form. Side chains are listed from the residue outwards. Peptide text beside a SMILES is read from it. * marks the point of attachment. C20 diacid = O=C(O)CCCCCCCCCCCCCCCCCCC(=O)*; γGlu = O=C(O)[C@H](CCC(=O)[*:2])N[*:1]; αMeL = CC(C)C[C@](C)(N)C(=O)O; AEEA = NCCOCCOCC(=O)O; Aib = CC(C)(N)C(=O)O

Columns and labels:
human Gcg receptor = target: T1, human Gcg receptor (Homo sapiens, UniProt P47871); assay: [125I]-Glucagon binding (SPA), human Gcg receptor; conditions: read-out: hGLcgR Ki, nM (SEM, n)
T1 construct: expressed in transfected cells; crude membranes
T1 sequence (P47871 26-477): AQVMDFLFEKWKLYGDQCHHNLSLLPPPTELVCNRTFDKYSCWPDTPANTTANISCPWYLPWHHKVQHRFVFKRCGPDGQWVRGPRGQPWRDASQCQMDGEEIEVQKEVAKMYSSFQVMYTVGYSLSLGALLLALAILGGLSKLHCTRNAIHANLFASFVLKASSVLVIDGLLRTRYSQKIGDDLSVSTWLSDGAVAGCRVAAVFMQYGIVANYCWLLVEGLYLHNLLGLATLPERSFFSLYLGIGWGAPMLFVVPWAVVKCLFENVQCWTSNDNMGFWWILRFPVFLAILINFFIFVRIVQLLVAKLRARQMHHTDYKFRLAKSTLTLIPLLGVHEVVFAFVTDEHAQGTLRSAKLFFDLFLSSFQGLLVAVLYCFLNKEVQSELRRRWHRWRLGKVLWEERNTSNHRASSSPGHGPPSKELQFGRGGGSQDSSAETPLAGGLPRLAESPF
In short: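 Cell pellets were lysed in hypotonic Tris buffer, pH 7.5, homogenized, and spun at low then high speed to give crude membranes. Ki was derived from the fitted IC50.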

[1] = target: human GLP-1 receptor (GLP-1R) (Homo sapiens, UniProt P43220); assay: cAMP pharmacological functional assay in presence of casein, hGLP-1R; type: cell-based; conditions: HEK293 cells expressing hGLP-1R, 0.1% Casein, geometric mean; read-out: hGLP1R cAMP Rel EC50 nM (SEM, n)
human GLP-1 receptor (GLP-1R), sequence (P43220 24-463): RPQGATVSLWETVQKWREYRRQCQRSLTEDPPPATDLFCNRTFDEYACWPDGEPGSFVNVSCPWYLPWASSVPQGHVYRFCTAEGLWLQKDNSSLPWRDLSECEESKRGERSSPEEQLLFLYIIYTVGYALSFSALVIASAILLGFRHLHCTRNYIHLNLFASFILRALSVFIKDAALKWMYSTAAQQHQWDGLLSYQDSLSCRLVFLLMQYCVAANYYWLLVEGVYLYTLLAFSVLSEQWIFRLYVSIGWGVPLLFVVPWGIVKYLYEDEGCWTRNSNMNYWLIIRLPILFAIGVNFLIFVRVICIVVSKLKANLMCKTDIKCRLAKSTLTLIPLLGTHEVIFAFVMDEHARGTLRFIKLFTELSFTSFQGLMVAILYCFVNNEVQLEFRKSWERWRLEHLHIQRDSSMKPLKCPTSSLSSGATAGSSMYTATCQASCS

[2] = target: T2, gastric inhibitory peptide receptor (GIPR) (Homo sapiens, UniProt P48546); assay: cAMP pharmacological functional assay in presence of casein, hGIPR; type: cell-based; conditions: HEK293 cells expressing hGIPR, 0.1% Casein, geometric mean; read-out: hGIPR cAMP Rel EC50 nM (SEM, n)
T2 sequence (P48546 22-466): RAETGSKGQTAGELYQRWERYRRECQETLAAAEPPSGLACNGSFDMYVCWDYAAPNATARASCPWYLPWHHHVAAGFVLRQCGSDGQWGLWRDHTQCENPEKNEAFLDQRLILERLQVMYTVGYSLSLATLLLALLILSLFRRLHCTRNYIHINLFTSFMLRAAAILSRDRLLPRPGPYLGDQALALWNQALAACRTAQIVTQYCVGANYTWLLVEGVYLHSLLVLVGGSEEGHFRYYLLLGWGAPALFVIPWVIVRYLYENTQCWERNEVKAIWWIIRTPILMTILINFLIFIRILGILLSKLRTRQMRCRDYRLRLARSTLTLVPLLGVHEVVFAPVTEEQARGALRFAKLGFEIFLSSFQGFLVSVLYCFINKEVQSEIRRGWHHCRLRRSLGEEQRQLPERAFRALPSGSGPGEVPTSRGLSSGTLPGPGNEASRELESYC

human GLP-1R = human GLP-1R (Homo sapiens, UniProt P43220); assay: [125I]-GLP-1 binding (SPA), human GLP-1 receptor; design: expressed in transfected cells; crude membranes; conditions: read-out: hGLP1R Ki, (nM) (SEM, n)
human GLP-1R, sequence (P43220 24-463): as the sequence (P43220 24-463) above
In short: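 Frozen cell pellets are lysed on ice in hypotonic Tris buffer, pH 7.5, homogenized, and centrifuged to a membrane pellet resuspended at about 1 to 3 mg/mL. Binding is then measured in HEPES-based buffer at pH 7.4, and curves are fitted to give IC50 and Ki.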

human GIP receptor = target: T3, human GIP receptor (Homo sapiens, UniProt P48546); assay: [125I]-GIP binding (SPA), human GIP receptor; conditions: read-out: hGIPR Ki, nM (SEM, n)
T3 construct: expressed in transfected cells; crude membranes
T3 sequence (P48546 22-466): T2 sequence (P48546 22-466)

Row | SMILES | Ki (human Gcg receptor) [nM] | EC50 [1] [nM] | EC50 [2] [nM] | Ki (human GLP-1R) [nM] | Ki (human GIP receptor) [nM]
1 | CC[C@H](C)[C@H](NC(=O)[C@H](Cc1ccccc1)NC(=O)[C@H](C)NC(=O)C(C)(C)NC(=O)[C@H](CCC(N)=O)NC(=O)[C@H](C)NC(=O)[C@H](CCCCNC(=O)COCCOCCNC(=O)COCCOCCNC(=O)CC[C@H](NC(=O)CCCCCCCCCCCCCCCCCCC(=O)O)C(=O)O)NC(=O)[C@H](CO)NC(=O)[C@H](CC(=O)O)NC(=O)[C@H](CC(C)C)NC(=O)[C@](C)(CC(C)C)NC(=O)[C@@H](NC(=O)[C@H](CO)NC(=O)[C@H](Cc1ccc(O)cc1)NC(=O)[C@H](CC(=O)O)NC(=O)[C@H](CO)NC(=O)[C@@H](NC(=O)[C@H](Cc1ccccc1)NC(=O)[C@@H](NC(=O)CNC(=O)[C@H](CCC(=O)O)NC(=O)C(C)(C)NC(=O)[C@@H](N)Cc1ccc(O)cc1)[C@@H](C)O)[C@@H](C)O)[C@@H](C)CC)C(=O)N[C@@H](CCC(=O)O)C(=O)N[C@@H](Cc1ccc(O)cc1)C(=O)N[C@@H](CC(C)C)C(=O)N[C@@H](CC(C)C)C(=O)N[C@@H](CCC(=O)O)C(=O)NCC(=O)NCC(=O)N1CCC[C@H]1C(=O)N[C@@H](CO)C(=O)N[C@@H](CO)C(=O)NCC(=O)N[C@@H](C)C(=O)N1CCC[C@H]1C(=O)N1CCC[C@H]1C(=O)N1CCC[C@H]1C(=O)N[C@@H](CO)C(N)=O [Example 61] (H-Y[Aib]EGTFTSDYSI[αMeL]LDSK([AEEA-AEEA-γGlu-C20 diacid])AQ[Aib]AFIEYLLEGGPSSGAPPPS-NH2) | 110 | 0.371 | 0.0739 | 11.1 | 0.102
2 | CC[C@H](C)[C@H](NC(=O)[C@H](CC(C)C)NC(=O)[C@H](Cc1ccc(O)cc1)NC(=O)[C@H](CCC(=O)O)NC(=O)[C@@H](NC(=O)[C@H](Cc1ccccc1)NC(=O)[C@H](C)NC(=O)C(C)(C)NC(=O)[C@H](CCC(N)=O)NC(=O)[C@H](C)NC(=O)[C@H](CCCCNC(=O)COCCOCCNC(=O)COCCOCCNC(=O)CC[C@H](NC(=O)CCCCCCCCCCCCCCCCCCC(=O)O)C(=O)O)NC(=O)[C@H](CCCCN)NC(=O)[C@H](CC(=O)O)NC(=O)[C@H](CC(C)C)NC(=O)[C@](C)(CC(C)C)NC(=O)[C@@H](NC(=O)[C@H](CO)NC(=O)[C@H](Cc1ccc(O)cc1)NC(=O)[C@H](CC(=O)O)NC(=O)[C@H](CO)NC(=O)[C@@H](NC(=O)[C@H](Cc1ccccc1)NC(=O)[C@@H](NC(=O)CNC(=O)[C@H](CCC(=O)O)NC(=O)C(C)(C)NC(=O)[C@@H](N)Cc1ccc(O)cc1)[C@@H](C)O)[C@@H](C)O)[C@@H](C)CC)[C@@H](C)CC)C(=O)N[C@@H](CCC(=O)O)C(=O)NCC(=O)NCC(N)=O [Example 62] (H-Y[Aib]EGTFTSDYSI[αMeL]LDKK([AEEA-AEEA-γGlu-C20 diacid])AQ[Aib]AFIEYLIEGG-NH2) | 168 | 0.159 | 0.0601 | 2.03 | 0.0545
3 | CC[C@H](C)[C@H](NC(=O)[C@H](CC(C)C)NC(=O)[C@H](Cc1ccc(O)cc1)NC(=O)[C@H](CCC(=O)O)NC(=O)[C@@H](NC(=O)[C@H](Cc1ccccc1)NC(=O)[C@H](C)NC(=O)C(C)(C)NC(=O)[C@H](CCC(N)=O)NC(=O)[C@H](C)NC(=O)[C@H](CCCCNC(=O)COCCOCCNC(=O)COCCOCCNC(=O)CC[C@H](NC(=O)CCCCCCCCCCCCCCCCCCC(=O)O)C(=O)O)NC(=O)[C@H](CCC(=O)O)NC(=O)[C@H](CC(=O)O)NC(=O)[C@H](CC(C)C)NC(=O)[C@](C)(CC(C)C)NC(=O)[C@@H](NC(=O)[C@H](CO)NC(=O)[C@H](Cc1ccc(O)cc1)NC(=O)[C@H](CC(=O)O)NC(=O)[C@H](CO)NC(=O)[C@@H](NC(=O)[C@H](Cc1ccccc1)NC(=O)[C@@H](NC(=O)CNC(=O)[C@H](CCC(=O)O)NC(=O)C(C)(C)NC(=O)[C@@H](N)Cc1ccc(O)cc1)[C@@H](C)O)[C@@H](C)O)[C@@H](C)CC)[C@@H](C)CC)C(=O)N[C@@H](CCC(=O)O)C(=O)NCC(=O)NCC(N)=O [Example 63] (H-Y[Aib]EGTFTSDYSI[αMeL]LDEK([AEEA-AEEA-γGlu-C20 diacid])AQ[Aib]AFIEYLIEGG-NH2) | 273 | 0.19 | 0.0925 | 7.79 | 0.141
4 | CC[C@H](C)[C@H](NC(=O)[C@H](CC(C)C)NC(=O)[C@H](Cc1ccc(O)cc1)NC(=O)[C@H](CCC(=O)O)NC(=O)[C@@H](NC(=O)[C@H](Cc1ccccc1)NC(=O)[C@H](C)NC(=O)C(C)(C)NC(=O)[C@H](CCC(N)=O)NC(=O)[C@H](C)NC(=O)[C@H](CCCCNC(=O)COCCOCCNC(=O)COCCOCCNC(=O)CC[C@H](NC(=O)CCCCCCCCCCCCCCCCCCC(=O)O)C(=O)O)NC(=O)[C@H](CO)NC(=O)[C@H](CC(=O)O)NC(=O)[C@H](CC(C)C)NC(=O)[C@](C)(CC(C)C)NC(=O)[C@@H](NC(=O)[C@H](CO)NC(=O)[C@H](Cc1ccc(O)cc1)NC(=O)[C@H](CC(=O)O)NC(=O)[C@H](CO)NC(=O)[C@@H](NC(=O)[C@H](Cc1ccccc1)NC(=O)[C@@H](NC(=O)CNC(=O)[C@H](CCC(=O)O)NC(=O)C(C)(C)NC(=O)[C@@H](N)Cc1ccc(O)cc1)[C@@H](C)O)[C@@H](C)O)[C@@H](C)CC)[C@@H](C)CC)C(=O)N[C@@H](CCC(=O)O)C(=O)NCC(=O)NCC(N)=O [Example 64] (H-Y[Aib]EGTFTSDYSI[αMeL]LDSK([AEEA-AEEA-γGlu-C20 diacid])AQ[Aib]AFIEYLIEGG-NH2) | 260 | 0.172 | 0.0916 | 4.86 | 0.0866
5 | CC[C@H](C)[C@H](NC(=O)[C@H](CC(C)C)NC(=O)[C@H](Cc1ccc(O)cc1)NC(=O)[C@H](CCC(=O)O)NC(=O)[C@@H](NC(=O)[C@H](Cc1ccccc1)NC(=O)[C@H](C)NC(=O)C(C)(C)NC(=O)[C@H](CCC(N)=O)NC(=O)[C@H](C)NC(=O)[C@H](CCCCNC(=O)COCCOCCNC(=O)COCCOCCNC(=O)CC[C@H](NC(=O)CCCCCCCCCCCCCCCCCCC(=O)O)C(=O)O)NC(=O)[C@@H](NC(=O)[C@H](CC(=O)O)NC(=O)[C@H](CC(C)C)NC(=O)[C@](C)(CC(C)C)NC(=O)[C@@H](NC(=O)[C@H](CO)NC(=O)[C@H](Cc1ccc(O)cc1)NC(=O)[C@H](CC(=O)O)NC(=O)[C@H](CO)NC(=O)[C@@H](NC(=O)[C@H](Cc1ccccc1)NC(=O)[C@@H](NC(=O)CNC(=O)[C@H](CCC(=O)O)NC(=O)C(C)(C)NC(=O)[C@@H](N)Cc1ccc(O)cc1)[C@@H](C)O)[C@@H](C)O)[C@@H](C)CC)[C@@H](C)O)[C@@H](C)CC)C(=O)N[C@@H](CCC(=O)O)C(=O)NCC(=O)NCC(N)=O [Example 65] (H-Y[Aib]EGTFTSDYSI[αMeL]LDTK([AEEA-AEEA-γGlu-C20 diacid])AQ[Aib]AFIEYLIEGG-NH2; N-terminus assumed) | 194 | 0.289 | 0.143 | 4.53 | 0.0643
6 | CC[C@H](C)[C@H](NC(=O)[C@H](Cc1ccccc1)NC(=O)[C@H](C)NC(=O)C(C)(C)NC(=O)[C@H](CCC(N)=O)NC(=O)[C@H](C)NC(=O)[C@H](CCCCNC(=O)COCCOCCNC(=O)COCCOCCNC(=O)CC[C@H](NC(=O)CCCCCCCCCCCCCCCCCCC(=O)O)C(=O)O)NC(=O)[C@H](CCC(=O)O)NC(=O)[C@H](CC(=O)O)NC(=O)[C@H](CC(C)C)NC(=O)[C@](C)(CC(C)C)NC(=O)[C@@H](NC(=O)[C@H](CO)NC(=O)[C@H](Cc1ccc(O)cc1)NC(=O)[C@H](CC(=O)O)NC(=O)[C@H](CO)NC(=O)[C@@H](NC(=O)[C@H](Cc1ccccc1)NC(=O)[C@@H](NC(=O)CNC(=O)[C@H](CCC(=O)O)NC(=O)C(C)(C)NC(=O)[C@@H](N)Cc1ccc(O)cc1)[C@@H](C)O)[C@@H](C)O)[C@@H](C)CC)C(=O)N[C@@H](CCC(=O)O)C(=O)N[C@@H](Cc1ccc(O)cc1)C(=O)N[C@@H](CC(C)C)C(=O)N[C@@H](CC(C)C)C(=O)N[C@@H](CCC(=O)O)C(=O)NCC(=O)NCC(=O)N1CCC[C@H]1C(=O)N[C@@H](CO)C(=O)N[C@@H](CO)C(=O)NCC(=O)N[C@@H](C)C(=O)N1CCC[C@H]1C(=O)N1CCC[C@H]1C(=O)N1CCC[C@H]1C(=O)N[C@@H](CO)C(N)=O [Example 66] (H-Y[Aib]EGTFTSDYSI[αMeL]LDEK([AEEA-AEEA-γGlu-C20 diacid])AQ[Aib]AFIEYLLEGGPSSGAPPPS-NH2) | 93.7 | 0.285 | 0.0743 | 7.53 | 0.106
